Measured values taken from patent publication US20080090896A1, “Strontium-Based Treatment Of Otosclerosis” (priority 2006, published 2008).

Tested on: hearing loss associated with otosclerosis
Conditions: hearing loss patients; 2 mg strontium ranelate daily for 6 months; symptoms measured monthly
Procedure: Hearing Loss. Hearing loss patients generally experience progressive loss of hearing.
The following populations having the symptom stated are treated with a dosing schedule of 2 mg strontium ranelate daily for 6 months.
All symptoms will be measured monthly. All improvements will be recorded and assessed.

N#Cc1c(N(CC(=O)[O-])CC(=O)[O-])sc(C(=O)[O-])c1CC(=O)[O-].[Sr+2].[Sr+2] [strontium ranelate]
hearing (gains or cessation of the progression of hearing loss): some hearing gains
